Assay results taken from ChEMBL document CHEMBL3817731, “Synthesis and investigation of novel benzimidazole derivatives as antifungal agents” (Bioorg Med Chem, 2016).
≈ marks a conversion by molar mass, not a printed value.

tested on: Aspergillus nidulans; experiment: Antifungal activity against Aspergillus nidulans ATCC 38163 after 48 hrs by CLSI M38-A2 method; type: functional; details: ATCC 38163, 48 h

SMILES | MIC [µg/mL]
CC[C@@H]([C@H](C)O)n1ncn(-c2ccc(N3CCN(c4ccc(OC[C@@H]5CO[C@@](Cn6cncn6)(c6ccc(F)cc6F)C5)cc4)CC3)cc2)c1=O [POSACONAZOLE] | 0.195 (≈ 0.278 µM)
CCC(C)n1ncn(-c2ccc(N3CCN(c4ccc(OCC5COC(Cn6cncn6)(c6ccc(Cl)cc6Cl)O5)cc4)CC3)cc2)c1=O (centres undefined) [ITRACONAZOLE] | 0.195 (≈ 0.276 µM)
CCCCCN1CCN(c2ccc3nc(-c4ccc5nc(-c6ccc(OC)cc6)[nH]c5c4)[nH]c3c2)CC1 | > 31.2
CCOc1ccc(-c2nc3ccc(-c4nc5ccc(N6CCN(CC)CC6)cc5[nH]4)cc3[nH]2)cc1 | 15.6 (≈ 33.4 µM)
CCCN1CCN(c2ccc3nc(-c4ccc5nc(-c6ccc(OCC)cc6)[nH]c5c4)[nH]c3c2)CC1 | > 31.2

tested on: Candida albicans; experiment: Antifungal activity against Candida albicans ATCC MYA-90819 after 48 hrs by CLSI M27-A3 method; type: functional; details: ATCC MYA-90819, 48 h

SMILES | MIC [µg/mL]
CC[C@@H]([C@H](C)O)n1ncn(-c2ccc(N3CCN(c4ccc(OC[C@@H]5CO[C@@](Cn6cncn6)(c6ccc(F)cc6F)C5)cc4)CC3)cc2)c1=O [POSACONAZOLE] | 31.2 (≈ 44.5 µM)
CCC(C)n1ncn(-c2ccc(N3CCN(c4ccc(OCC5COC(Cn6cncn6)(c6ccc(Cl)cc6Cl)O5)cc4)CC3)cc2)c1=O (centres undefined) [ITRACONAZOLE] | 31.2 (≈ 44.2 µM)
CCCCCN1CCN(c2ccc3nc(-c4ccc5nc(-c6ccc(OC)cc6)[nH]c5c4)[nH]c3c2)CC1 | > 31.2
CCOc1ccc(-c2nc3ccc(-c4nc5ccc(N6CCN(CC)CC6)cc5[nH]4)cc3[nH]2)cc1 | 15.6 (≈ 33.4 µM)
CCCN1CCN(c2ccc3nc(-c4ccc5nc(-c6ccc(OCC)cc6)[nH]c5c4)[nH]c3c2)CC1 | > 31.2

tested on: Nakaseomyces glabratus; experiment: Antifungal activity against Candida glabrata ATCC 2001 after 48 hrs by CLSI M27-A3 method; type: functional; details: CBS 138, 48 h

SMILES | MIC [µg/mL]
CC[C@@H]([C@H](C)O)n1ncn(-c2ccc(N3CCN(c4ccc(OC[C@@H]5CO[C@@](Cn6cncn6)(c6ccc(F)cc6F)C5)cc4)CC3)cc2)c1=O [POSACONAZOLE] | 0.12 (≈ 0.171 µM)
CCCCCN1CCN(c2ccc3nc(-c4ccc5nc(-c6ccc(OC)cc6)[nH]c5c4)[nH]c3c2)CC1 | > 31.2
CCOc1ccc(-c2nc3ccc(-c4nc5ccc(N6CCN(CC)CC6)cc5[nH]4)cc3[nH]2)cc1 | 31.2 (≈ 66.9 µM)
CCCN1CCN(c2ccc3nc(-c4ccc5nc(-c6ccc(OCC)cc6)[nH]c5c4)[nH]c3c2)CC1 | > 31.2

tested on: Candida albicans; experiment: Antifungal activity against Candida albicans ATCC MYA-1237 after 48 hrs by CLSI M27-A3 method; type: functional; details: ATCC MYA-1237, 48 h

SMILES | MIC [µg/mL]
CC[C@@H]([C@H](C)O)n1ncn(-c2ccc(N3CCN(c4ccc(OC[C@@H]5CO[C@@](Cn6cncn6)(c6ccc(F)cc6F)C5)cc4)CC3)cc2)c1=O [POSACONAZOLE] | 15.6 (≈ 22.3 µM)
CCC(C)n1ncn(-c2ccc(N3CCN(c4ccc(OCC5COC(Cn6cncn6)(c6ccc(Cl)cc6Cl)O5)cc4)CC3)cc2)c1=O (centres undefined) [ITRACONAZOLE] | 31.2 (≈ 44.2 µM)
CCCCCN1CCN(c2ccc3nc(-c4ccc5nc(-c6ccc(OC)cc6)[nH]c5c4)[nH]c3c2)CC1 | > 31.2
CCOc1ccc(-c2nc3ccc(-c4nc5ccc(N6CCN(CC)CC6)cc5[nH]4)cc3[nH]2)cc1 | 15.6 (≈ 33.4 µM)
CCCN1CCN(c2ccc3nc(-c4ccc5nc(-c6ccc(OCC)cc6)[nH]c5c4)[nH]c3c2)CC1 | > 31.2

tested on: Pichia kudriavzevii; experiment: Antifungal activity against Candida krusei ATCC 6258 after 48 hrs by CLSI M27-A3 method; type: functional; details: ATCC 6258, 48 h

SMILES | MIC [µg/mL]
CC[C@@H]([C@H](C)O)n1ncn(-c2ccc(N3CCN(c4ccc(OC[C@@H]5CO[C@@](Cn6cncn6)(c6ccc(F)cc6F)C5)cc4)CC3)cc2)c1=O [POSACONAZOLE] | 0.06 (≈ 0.0856 µM)
CCC(C)n1ncn(-c2ccc(N3CCN(c4ccc(OCC5COC(Cn6cncn6)(c6ccc(Cl)cc6Cl)O5)cc4)CC3)cc2)c1=O (centres undefined) [ITRACONAZOLE] | 0.48 (≈ 0.68 µM)
CCCCCN1CCN(c2ccc3nc(-c4ccc5nc(-c6ccc(OC)cc6)[nH]c5c4)[nH]c3c2)CC1 | > 31.2
CCOc1ccc(-c2nc3ccc(-c4nc5ccc(N6CCN(CC)CC6)cc5[nH]4)cc3[nH]2)cc1 | 15.6 (≈ 33.4 µM)
CCCN1CCN(c2ccc3nc(-c4ccc5nc(-c6ccc(OCC)cc6)[nH]c5c4)[nH]c3c2)CC1 | 15.6 (≈ 32.5 µM)

tested on: Candida albicans; experiment: Antifungal activity against Candida albicans ATCC 10231 after 48 hrs by CLSI M27-A3 method; type: functional; details: ATCC 10231, 48 h

SMILES | MIC [µg/mL]
CC[C@@H]([C@H](C)O)n1ncn(-c2ccc(N3CCN(c4ccc(OC[C@@H]5CO[C@@](Cn6cncn6)(c6ccc(F)cc6F)C5)cc4)CC3)cc2)c1=O [POSACONAZOLE] | 0.5 (≈ 0.713 µM)
CCC(C)n1ncn(-c2ccc(N3CCN(c4ccc(OCC5COC(Cn6cncn6)(c6ccc(Cl)cc6Cl)O5)cc4)CC3)cc2)c1=O (centres undefined) [ITRACONAZOLE] | 0.5 (≈ 0.709 µM)
CCCCCN1CCN(c2ccc3nc(-c4ccc5nc(-c6ccc(OC)cc6)[nH]c5c4)[nH]c3c2)CC1 | > 31.2
CCOc1ccc(-c2nc3ccc(-c4nc5ccc(N6CCN(CC)CC6)cc5[nH]4)cc3[nH]2)cc1 | 15.6 (≈ 33.4 µM)
CCCN1CCN(c2ccc3nc(-c4ccc5nc(-c6ccc(OCC)cc6)[nH]c5c4)[nH]c3c2)CC1 | > 31.2

tested on: Candida parapsilosis; experiment: Antifungal activity against Candida parapsilosis ATCC 22019 after 48 hrs by CLSI M27-A3 method; type: functional; details: Lodderomyces parapsilosis, ATCC 22019, 48 h

SMILES | MIC [µg/mL]
CC[C@@H]([C@H](C)O)n1ncn(-c2ccc(N3CCN(c4ccc(OC[C@@H]5CO[C@@](Cn6cncn6)(c6ccc(F)cc6F)C5)cc4)CC3)cc2)c1=O [POSACONAZOLE] | < 0.03
CCC(C)n1ncn(-c2ccc(N3CCN(c4ccc(OCC5COC(Cn6cncn6)(c6ccc(Cl)cc6Cl)O5)cc4)CC3)cc2)c1=O (centres undefined) [ITRACONAZOLE] | 0.12 (≈ 0.17 µM)
CCCCCN1CCN(c2ccc3nc(-c4ccc5nc(-c6ccc(OC)cc6)[nH]c5c4)[nH]c3c2)CC1 | 15.6 (≈ 31.5 µM)
CCOc1ccc(-c2nc3ccc(-c4nc5ccc(N6CCN(CC)CC6)cc5[nH]4)cc3[nH]2)cc1 | 3.9 (≈ 8.36 µM)
CCCN1CCN(c2ccc3nc(-c4ccc5nc(-c6ccc(OCC)cc6)[nH]c5c4)[nH]c3c2)CC1 | > 31.2

tested on: Candida albicans; experiment: Antifungal activity against Candida albicans ATCC MYA-2876 after 48 hrs by CLSI M27-A3 method; type: functional; details: ATCC MYA-2876, 48 h

SMILES | MIC [µg/mL]
CC[C@@H]([C@H](C)O)n1ncn(-c2ccc(N3CCN(c4ccc(OC[C@@H]5CO[C@@](Cn6cncn6)(c6ccc(F)cc6F)C5)cc4)CC3)cc2)c1=O [POSACONAZOLE] | 7.8 (≈ 11.1 µM)
CCC(C)n1ncn(-c2ccc(N3CCN(c4ccc(OCC5COC(Cn6cncn6)(c6ccc(Cl)cc6Cl)O5)cc4)CC3)cc2)c1=O (centres undefined) [ITRACONAZOLE] | 7.8 (≈ 11.1 µM)
CCCCCN1CCN(c2ccc3nc(-c4ccc5nc(-c6ccc(OC)cc6)[nH]c5c4)[nH]c3c2)CC1 | > 31.2
CCOc1ccc(-c2nc3ccc(-c4nc5ccc(N6CCN(CC)CC6)cc5[nH]4)cc3[nH]2)cc1 | 15.6 (≈ 33.4 µM)
CCCN1CCN(c2ccc3nc(-c4ccc5nc(-c6ccc(OCC)cc6)[nH]c5c4)[nH]c3c2)CC1 | > 31.2

tested on: Aspergillus flavus; experiment: Antifungal activity against Aspergillus flavus ATCC MYA-3631 after 48 hrs by CLSI M38-A2 method; type: functional; details: ATCC MYA-3631, 48 h

SMILES | MIC [µg/mL]
CC[C@@H]([C@H](C)O)n1ncn(-c2ccc(N3CCN(c4ccc(OC[C@@H]5CO[C@@](Cn6cncn6)(c6ccc(F)cc6F)C5)cc4)CC3)cc2)c1=O [POSACONAZOLE] | 0.24 (≈ 0.342 µM)
CCC(C)n1ncn(-c2ccc(N3CCN(c4ccc(OCC5COC(Cn6cncn6)(c6ccc(Cl)cc6Cl)O5)cc4)CC3)cc2)c1=O (centres undefined) [ITRACONAZOLE] | 0.48 (≈ 0.68 µM)
CCCCCN1CCN(c2ccc3nc(-c4ccc5nc(-c6ccc(OC)cc6)[nH]c5c4)[nH]c3c2)CC1 | > 31.2
CCOc1ccc(-c2nc3ccc(-c4nc5ccc(N6CCN(CC)CC6)cc5[nH]4)cc3[nH]2)cc1 | > 31.2
CCCN1CCN(c2ccc3nc(-c4ccc5nc(-c6ccc(OCC)cc6)[nH]c5c4)[nH]c3c2)CC1 | > 31.2

tested on: Candida albicans; experiment: Antifungal activity against Candida albicans ATCC MYA-2310 after 48 hrs by CLSI M27-A3 method; type: functional; details: ATCC MYA-2310, 48 h

SMILES | MIC [µg/mL]
CC[C@@H]([C@H](C)O)n1ncn(-c2ccc(N3CCN(c4ccc(OC[C@@H]5CO[C@@](Cn6cncn6)(c6ccc(F)cc6F)C5)cc4)CC3)cc2)c1=O [POSACONAZOLE] | 31.2 (≈ 44.5 µM)
CCC(C)n1ncn(-c2ccc(N3CCN(c4ccc(OCC5COC(Cn6cncn6)(c6ccc(Cl)cc6Cl)O5)cc4)CC3)cc2)c1=O (centres undefined) [ITRACONAZOLE] | 31.2 (≈ 44.2 µM)
CCCCCN1CCN(c2ccc3nc(-c4ccc5nc(-c6ccc(OC)cc6)[nH]c5c4)[nH]c3c2)CC1 | > 31.2
CCOc1ccc(-c2nc3ccc(-c4nc5ccc(N6CCN(CC)CC6)cc5[nH]4)cc3[nH]2)cc1 | 15.6 (≈ 33.4 µM)
CCCN1CCN(c2ccc3nc(-c4ccc5nc(-c6ccc(OCC)cc6)[nH]c5c4)[nH]c3c2)CC1 | > 31.2

tested on: Candida albicans; experiment: Antifungal activity against Candida albicans ATCC MYA-1003 after 48 hrs by CLSI M27-A3 method; type: functional; details: ATCC MYA-1003, 48 h

SMILES | MIC [µg/mL]
CC[C@@H]([C@H](C)O)n1ncn(-c2ccc(N3CCN(c4ccc(OC[C@@H]5CO[C@@](Cn6cncn6)(c6ccc(F)cc6F)C5)cc4)CC3)cc2)c1=O [POSACONAZOLE] | 15.6 (≈ 22.3 µM)
CCC(C)n1ncn(-c2ccc(N3CCN(c4ccc(OCC5COC(Cn6cncn6)(c6ccc(Cl)cc6Cl)O5)cc4)CC3)cc2)c1=O (centres undefined) [ITRACONAZOLE] | 31.2 (≈ 44.2 µM)
CCCCCN1CCN(c2ccc3nc(-c4ccc5nc(-c6ccc(OC)cc6)[nH]c5c4)[nH]c3c2)CC1 | > 31.2
CCOc1ccc(-c2nc3ccc(-c4nc5ccc(N6CCN(CC)CC6)cc5[nH]4)cc3[nH]2)cc1 | > 31.2
CCCN1CCN(c2ccc3nc(-c4ccc5nc(-c6ccc(OCC)cc6)[nH]c5c4)[nH]c3c2)CC1 | > 31.2

tested on: Candida albicans; experiment: Antifungal activity against Candida albicans ATCC 64124 after 48 hrs by CLSI M27-A3 method; type: functional; details: ATCC 64124, 48 h

SMILES | MIC [µg/mL]
CC[C@@H]([C@H](C)O)n1ncn(-c2ccc(N3CCN(c4ccc(OC[C@@H]5CO[C@@](Cn6cncn6)(c6ccc(F)cc6F)C5)cc4)CC3)cc2)c1=O [POSACONAZOLE] | > 62.5
CCC(C)n1ncn(-c2ccc(N3CCN(c4ccc(OCC5COC(Cn6cncn6)(c6ccc(Cl)cc6Cl)O5)cc4)CC3)cc2)c1=O (centres undefined) [ITRACONAZOLE] | > 62.5
CCCCCN1CCN(c2ccc3nc(-c4ccc5nc(-c6ccc(OC)cc6)[nH]c5c4)[nH]c3c2)CC1 | > 31.2
CCOc1ccc(-c2nc3ccc(-c4nc5ccc(N6CCN(CC)CC6)cc5[nH]4)cc3[nH]2)cc1 | 15.6 (≈ 33.4 µM)
CCCN1CCN(c2ccc3nc(-c4ccc5nc(-c6ccc(OCC)cc6)[nH]c5c4)[nH]c3c2)CC1 | > 31.2

tested on: Aspergillus terreus; experiment: Antifungal activity against Aspergillus terreus ATCC MYA3633 after 48 hrs by CLSI M38-A2 method; type: functional; details: ATCC MYA3633, 48 h

SMILES | MIC [µg/mL]
CC[C@@H]([C@H](C)O)n1ncn(-c2ccc(N3CCN(c4ccc(OC[C@@H]5CO[C@@](Cn6cncn6)(c6ccc(F)cc6F)C5)cc4)CC3)cc2)c1=O [POSACONAZOLE] | 0.48 (≈ 0.685 µM)
CCC(C)n1ncn(-c2ccc(N3CCN(c4ccc(OCC5COC(Cn6cncn6)(c6ccc(Cl)cc6Cl)O5)cc4)CC3)cc2)c1=O (centres undefined) [ITRACONAZOLE] | 0.975 (≈ 1.38 µM)
CCCCCN1CCN(c2ccc3nc(-c4ccc5nc(-c6ccc(OC)cc6)[nH]c5c4)[nH]c3c2)CC1 | > 31.2
CCOc1ccc(-c2nc3ccc(-c4nc5ccc(N6CCN(CC)CC6)cc5[nH]4)cc3[nH]2)cc1 | 15.6 (≈ 33.4 µM)
CCCN1CCN(c2ccc3nc(-c4ccc5nc(-c6ccc(OCC)cc6)[nH]c5c4)[nH]c3c2)CC1 | > 31.2
